According to article PMC4770093, “The role of kinetic context in apparent biased agonism at GPCRs” (Nature Communications, 2016):
“And” between values parts separate entries of the source, which are not always exact repeats. Equal values may be shown once.

Key:
[1] = biological target: SNAP-tagged human dopamine D2L (Homo sapiens, UniProt P14416); assay: Tag-lite PPHT-red competition kinetic binding (HTRF); conditions: PPHT-red tracer, Tag-lite
Experimental: To terbium label the SNAP-CHO-D2L cells, cell culture medium was removed from the T175 cm^2 flasks containing confluent adherent SNAP-CHO-D2L cells. Twelve millilitres of Tag-lite labelling medium containing 100 nM of SNAP-Lumi4-Tb was added to the flask and incubated for 1 h at 37 °C under 5% CO2. Cells were then washed 2 × in 15 ml PBS (GIBCO, Invitrogen, Paisley, UK) to remove the excess of SNAP-Lumi4-Tb and detached using 5 ml of enzyme-free Hank's-based cell dissociation buffer (GIBCO, Invitrogen, Paisley, UK) and collected in a vial containing 5 ml of DMEM/Nutrient F-12 Ham, 2 mM glutamine supplemented 10% FCS. Cells were pelleted by centrifugation (5 min at 1,500 r.p.m.) and the pellets were frozen to −80 °C before preparation of membranes.
All subsequent steps described were conducted at 4 °C, to avoid receptor degradation. Twenty millilitres of wash buffer (10 mM HEPES and 10 mM EDTA pH 7.4) was added to the pellet of terbium-labelled cells (equivalent to 1 × t175 cm^2). […] The supernatant was discarded and the pellet was homogenized and centrifuged as described above in wash buffer. The final pellet was suspended in ice-cold 10 mM HEPES and 0.1 mM EDTA pH 7.4, at a concentration of 5–10 mg m^−1. Protein concentration was determined by the bicinchoninic acid assay using BSA as a standard and aliquots maintained at −80 °C until required. Before their use, the frozen membranes were thawed and the membranes suspended in the assay buffer at a membrane concentration of 0.1 mg m^−1.
GppNHp was included to remove the G protein-coupled population of receptors that can result in two binding sites in membrane preparations, because the Motulsky–Mahan model is only appropriate for ligands competing at a single site. […] Both fluorescent ligands and unlabelled compounds were diluted in the binding assay buffer.
Kinetics acquisitions at intervals of 20 s were recorded using the standard settings of the reader for HTRF measurements. […] Specific binding was determined by subtracting the nonspecific HTRF ratio from the total HTRF ratio.
To accurately determine association rate (kon) and dissociation rate (koff) values, the observed rate of association (kob) was calculated using at least four different concentrations of PPHT-red. The appropriate concentration of PPHT-red was incubated in a 384-well Optiplate with human SNAP-D2LR-CHO cell membranes (2 μg per well) in assay binding buffer at 37 °C (final assay volume, 40 μl). The degree of PPHT-red bound to the receptor was assessed at multiple time points by HTRF detection, to allow construction of association kinetic curves. The resulting data were globally fitted to the association kinetic model (equation (8)) to derive a single best-fit estimate for kon and koff as described under ‘Data analysis'.
On the same 384-well Optiplate plate, the kinetic parameters of unlabelled ligand were assessed using a competition kinetic binding assay. This approach involves the simultaneous addition of both fluorescent ligand and competitor to receptor preparation so that at t=0 all receptors are unoccupied. […] The degree of PPHT-red bound to the receptor was assessed at multiple time points by HTRF detection. Nonspecific binding was determined as the amount of HTRF signal detected in the presence of spiperone (1 μM) and was subtracted from each time point. Each time point was conducted on the same 384-well plate incubated at 37 °C with shaking (100 r.p.m.) after every cycle.
Data were globally fitted using equation (7), to simultaneously calculate kon and koff.

[2] = biological target: T1, D2LR (Homo sapiens, UniProt P14416); assay: Inhibition of forskolin-induced cAMP production (BRET CAMYEL biosensor); conditions: for Emax cAMP: relative to the maximal response of ropinirole; for Inhibition of cAMP production measured using a CAMYEL BRET biosensor, Net BRET: single experiments n = 1, 2, 3
T1 sequence (P14416 whole entry): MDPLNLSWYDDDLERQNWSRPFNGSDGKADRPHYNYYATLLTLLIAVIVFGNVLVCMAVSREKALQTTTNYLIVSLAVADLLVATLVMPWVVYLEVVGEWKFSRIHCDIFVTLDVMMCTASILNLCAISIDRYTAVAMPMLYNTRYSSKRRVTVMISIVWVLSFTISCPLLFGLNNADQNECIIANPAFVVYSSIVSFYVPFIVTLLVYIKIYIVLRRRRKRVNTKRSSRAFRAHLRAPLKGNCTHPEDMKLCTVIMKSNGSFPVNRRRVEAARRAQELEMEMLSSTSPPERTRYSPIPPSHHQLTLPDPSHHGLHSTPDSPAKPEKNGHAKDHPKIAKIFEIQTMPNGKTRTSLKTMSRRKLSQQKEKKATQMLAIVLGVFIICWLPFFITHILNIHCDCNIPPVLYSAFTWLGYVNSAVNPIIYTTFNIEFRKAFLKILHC
Experimental: Flp-In-CHO cells stably expressing the D2LR were seeded at a density of 2,000,000 cells per 10-cm dish and were transfected the following day using polyethylenimine as the transfection reagent. The cells were transfected with 3 μg CAMYEL, to allow the detection of cAMP levels within the cells. Twenty-four hours after transfection, the cells were plated into 96-well CulturPlates (PerkinElmer) and grown overnight. The cells were equilibrated in Hank's balanced salt solution at 37 °C (or 25 °C when indicated) before starting the experiment. The cells were co-stimulated with the agonists and 10 μM forskolin for the indicated timeframes when the BRET readings were captured. Coelenterazine (Promega) was added at a final concentration of 5 μM at least 3 min before measurement. […] Net BRET was determined by subtraction of the vehicle control co-added with 10 μM forskolin.

[3] = biological target: T1, D2LR; assay: ERK1/2 phosphorylation assay (Alphascreen SureFire); type: cell-based; design: expressed in transfected cells; conditions: for alpahscreen assay to detect pERK1/2, counts: agonist 10 μM (cariprazine 1 μM), single experiments n=1 to n=4
Experimental: ERK1/2 phosphorylation was measured using the Alphascreen SureFire ERK kit (PerkinElmer, Waltham, USA). Cells were seeded into 96-well plates at a density of 50,000 cells per well. After 5–7 h, cells were washed with PBS and incubated in serum-free DMEM overnight before assaying. Dose–response experiments were performed for each ligand at 37 °C in the presence of 0.1% ascorbic acid. […] The plate was shaken for 5 min at room temperature (RT) before transferring 5 μl of the lysates to a white 384-well Proxiplate (PerkinElmer, Waltham, USA). […] Plates were read using a Fusion-TM plate reader (PerkinElmer, Waltham, USA).

[4] = 5 minute timepoint, Flp-In-CHO-D2LR
[5] = 5 minute timepoint, dopamine as reference agonist

Sequence of SNAP-tagged human dopamine D2L (P14416 whole entry): as above

CN1CCN(c2cccc3[nH]c(=O)oc23)CC1 [Pardoprunox, pardoprunox]
pKd (affinity determined from kinetic parameters) [1]: 7.75 | koff ([1]; 100 μM GppNHp, 37 °C): 0.038 ± 0.00933 s⁻¹ | pEC50 cAMP ([2]; 2 min): 8.98 | Emax cAMP ([2]; 2 min): 87 ± 1.9 | pEC50 cAMP ([2]; 5 min): 8.69 | Emax cAMP ([2]; 5 min): 87 ± 1.5 | Log(τ/KA) cAMP [2, 4]: 8.64 ± 0.05 | ΔLog(τ/KA) cAMP [2, 5]: 0.58 ± 0.07 | pEC50 cAMP ([2]; 10 min): 8.39 | Emax cAMP ([2]; 10 min): 86 ± 1.4 | pEC50 cAMP ([2]; 15 min): 8.33 | Emax cAMP ([2]; 15 min): 87 ± 1.6 | pEC50 cAMP ([2]; 30 min): 8.46 | Emax cAMP ([2]; 30 min): 85 ± 2.1 | pEC50 cAMP ([2]; 45 min): 8.03 | Emax cAMP ([2]; 45 min): 82 ± 1.4 | pEC50 cAMP ([2]; 60 min): 7.82 | Emax cAMP ([2]; 60 min): 74 ± 1.8 | pEC50 cAMP ([2]; 75 min): 8.04 | Emax cAMP ([2]; 75 min): 84 ± 2.2 | pEC50 cAMP ([2]; 90 min): 7.83 | Emax cAMP ([2]; 90 min): 81 ± 1.6 | Inhibition of cAMP production measured using a CAMYEL BRET biosensor, Net BRET ([2]; time 2.21667 mins): 0.09312 and 0.1119 and 0.09462 | Inhibition of cAMP production measured using a CAMYEL BRET biosensor, Net BRET ([2]; time 2.58333 mins): 0.09848 and 0.1094 and 0.0984 | Inhibition of cAMP production measured using a CAMYEL BRET biosensor, Net BRET ([2]; time 2.95 mins): 0.1044 and 0.1291 and 0.0949 | Inhibition of cAMP production measured using a CAMYEL BRET biosensor, Net BRET ([2]; time 3.31667 mins): 0.1072 and 0.1248 and 0.1125 | Inhibition of cAMP production measured using a CAMYEL BRET biosensor, Net BRET ([2]; time 3.68333 mins): 0.1144 and 0.1213 and 0.1135 | Inhibition of cAMP production measured using a CAMYEL BRET biosensor, Net BRET ([2]; time 4.05 mins): 0.1221 and 0.1382 and 0.1172 | Inhibition of cAMP production measured using a CAMYEL BRET biosensor, Net BRET ([2]; time 4.41667 mins): 0.1176 and 0.1369 and 0.114 | Inhibition of cAMP production measured using a CAMYEL BRET biosensor, Net BRET ([2]; time 4.78333 mins): 0.1323 and 0.136 and 0.1109 | Inhibition of cAMP production measured using a CAMYEL BRET biosensor, Net BRET ([2]; time 5.15 mins): 0.1365 and 0.1389 and 0.1171 | Inhibition of cAMP production measured using a CAMYEL BRET biosensor, Net BRET ([2]; time 5.51667 mins): 0.1301 and 0.1395 and 0.116 | Inhibition of cAMP production measured using a CAMYEL BRET biosensor, Net BRET ([2]; time 5.88333 mins): 0.1412 and 0.1297 and 0.1213 | Inhibition of cAMP production measured using a CAMYEL BRET biosensor, Net BRET ([2]; time 6.25 mins): 0.1339 and 0.1324 and 0.1196 | Inhibition of cAMP production measured using a CAMYEL BRET biosensor, Net BRET ([2]; time 6.61667 mins): 0.1245 and 0.1374 and 0.113 | Inhibition of cAMP production measured using a CAMYEL BRET biosensor, Net BRET ([2]; time 6.98333 mins): 0.1378 and 0.1302 and 0.1147 | Inhibition of cAMP production measured using a CAMYEL BRET biosensor, Net BRET ([2]; time 7.35 mins): 0.1418 and 0.1291 and 0.1123 | Inhibition of cAMP production measured using a CAMYEL BRET biosensor, Net BRET ([2]; time 7.71667 mins): 0.1394 and 0.1366 and 0.1233 | Inhibition of cAMP production measured using a CAMYEL BRET biosensor, Net BRET ([2]; time 8.08333 mins): 0.1443 and 0.1378 and 0.1166 | Inhibition of cAMP production measured using a CAMYEL BRET biosensor, Net BRET ([2]; time 8.45 mins): 0.1408 and 0.1371 and 0.1127 | Inhibition of cAMP production measured using a CAMYEL BRET biosensor, Net BRET ([2]; time 8.81667 mins): 0.144 and 0.1435 and 0.1231 | Inhibition of cAMP production measured using a CAMYEL BRET biosensor, Net BRET ([2]; time 9.18333 mins): 0.1482 and 0.1437 and 0.1124 | Inhibition of cAMP production measured using a CAMYEL BRET biosensor, Net BRET ([2]; time 9.55 mins): 0.1472 and 0.1422 and 0.1225 | Inhibition of cAMP production measured using a CAMYEL BRET biosensor, Net BRET ([2]; time 9.91667 mins): 0.1503 and 0.1391 and 0.1248 | Inhibition of cAMP production measured using a CAMYEL BRET biosensor, Net BRET ([2]; time 10.2833 mins): 0.1418 and 0.1435 and 0.1207 | Inhibition of cAMP production measured using a CAMYEL BRET biosensor, Net BRET ([2]; time 10.65 mins): 0.1434 and 0.1464 and 0.1244 | Inhibition of cAMP production measured using a CAMYEL BRET biosensor, Net BRET ([2]; time 11.0167 mins): 0.1459 and 0.1412 and 0.1263 | Inhibition of cAMP production measured using a CAMYEL BRET biosensor, Net BRET ([2]; time 11.3833 mins): 0.1508 and 0.1374 and 0.1263 | Inhibition of cAMP production measured using a CAMYEL BRET biosensor, Net BRET ([2]; time 11.75 mins): 0.1476 and 0.1469 and 0.1207 | Inhibition of cAMP production measured using a CAMYEL BRET biosensor, Net BRET ([2]; time 12.1167 mins): 0.1454 and 0.1457 and 0.1265 | Inhibition of cAMP production measured using a CAMYEL BRET biosensor, Net BRET ([2]; time 12.4833 mins): 0.14 and 0.1421 and 0.1315 | Inhibition of cAMP production measured using a CAMYEL BRET biosensor, Net BRET ([2]; time 12.85 mins): 0.1413 and 0.1515 and 0.1219 | Inhibition of cAMP production measured using a CAMYEL BRET biosensor, Net BRET ([2]; time 13.2167 mins): 0.1418 and 0.1452 and 0.1337 | Inhibition of cAMP production measured using a CAMYEL BRET biosensor, Net BRET ([2]; time 13.5833 mins): 0.1514 and 0.1571 and 0.1315 | Inhibition of cAMP production measured using a CAMYEL BRET biosensor, Net BRET ([2]; time 13.95 mins): 0.1501 and 0.1517 and 0.1357 | Inhibition of cAMP production measured using a CAMYEL BRET biosensor, Net BRET ([2]; time 14.3167 mins): 0.1522 | Log(τ/KA) pERK1/2 [3, 4]: 9.06 ± 0.08 | ΔLog(τ/KA) pERK1/2 [3, 5]: 0.50 ± 0.10 | alpahscreen assay to detect pERK1/2, counts ([3]; time 7.5 mins): 13.2699 counts and 16.7995 counts and 15.0808 counts and 9.987 counts | alpahscreen assay to detect pERK1/2, counts ([3]; time 10 mins): 12.5176 counts and 12.8139 counts and 9.935 counts and 7.3291 counts | alpahscreen assay to detect pERK1/2, counts ([3]; time 20 mins): 2.97 counts and 3.103 counts and 2.735 counts and 1.953 counts
